From ChEMBL document CHEMBL1909046, “DrugMatrix in vitro pharmacology data”
pIC50, pKi: −log10 of the molar value.

Legend:
B2 bradykinin receptor = target: T1, B2 bradykinin receptor (Homo sapiens, UniProt P30411); assay type: cell membranes, Membrane; settings: chem-1; note: in other assays of this panel Not Active means under 50% inhibition at 10 µM
T1 sequence (P30411 whole entry): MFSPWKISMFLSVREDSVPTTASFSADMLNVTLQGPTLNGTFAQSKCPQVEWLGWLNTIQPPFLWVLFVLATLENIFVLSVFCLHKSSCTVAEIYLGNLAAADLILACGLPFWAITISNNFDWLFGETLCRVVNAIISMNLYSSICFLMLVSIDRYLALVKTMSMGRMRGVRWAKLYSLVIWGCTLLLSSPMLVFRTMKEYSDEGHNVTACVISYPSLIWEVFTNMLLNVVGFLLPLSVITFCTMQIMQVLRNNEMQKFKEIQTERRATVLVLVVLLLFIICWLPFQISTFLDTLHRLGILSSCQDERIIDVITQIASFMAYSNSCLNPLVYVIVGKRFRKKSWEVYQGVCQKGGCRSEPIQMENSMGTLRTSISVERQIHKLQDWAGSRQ

Melanocortin receptor 4 = Melanocortin receptor 4 (Homo sapiens, UniProt P32245); assay type: cell membranes, Membrane; settings: hek293; note: in other assays of this panel Not Active means under 50% inhibition at 10 µM
Adenosine receptor A2a = Adenosine receptor A2a (Homo sapiens, UniProt P29274); assay: DRUGMATRIX: Adenosine A2A radioligand binding (ligand: […]); assay type: cell membranes, HEK293, Membrane; settings: Not Active = under 50% inhibition at 10 µM; for IC50 / Ki: hek293
[1] = target: Delta-type opioid receptor (Homo sapiens, UniProt P41143); assay type: cell membranes, HEK293, Membrane; settings: for IC50 / Ki: hek293; for all read-outs here: in other assays of this panel Not Active means under 50% inhibition at 10 µM
[2] = target: 5-hydroxytryptamine receptor 2B (Homo sapiens, UniProt P41595); assay type: cell membranes, CHO-K1, Membrane; settings: for IC50 / Ki: cho-k1; for pIC50: read-out: IC50; for pKi: read-out: Ki; for all read-outs here: in other assays of this panel Not Active means under 50% inhibition at 10 µM
Adenosine receptor A1 = target: T2, Adenosine receptor A1 (Homo sapiens, UniProt P30542); assay type: cell membranes, CHO, Membrane; settings: for IC50 / Ki: cho
T2 sequence (P30542 whole entry): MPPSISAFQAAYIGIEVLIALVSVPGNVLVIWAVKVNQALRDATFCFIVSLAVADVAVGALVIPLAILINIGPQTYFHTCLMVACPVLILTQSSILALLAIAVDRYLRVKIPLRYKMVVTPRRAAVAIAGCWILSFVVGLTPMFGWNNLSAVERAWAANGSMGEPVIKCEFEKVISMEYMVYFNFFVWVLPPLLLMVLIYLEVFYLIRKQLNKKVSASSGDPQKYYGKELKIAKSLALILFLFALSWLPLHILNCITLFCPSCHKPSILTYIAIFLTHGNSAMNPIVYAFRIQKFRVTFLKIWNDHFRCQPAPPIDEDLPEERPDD

Chain of Adenosine receptor A2a (P29274 whole entry): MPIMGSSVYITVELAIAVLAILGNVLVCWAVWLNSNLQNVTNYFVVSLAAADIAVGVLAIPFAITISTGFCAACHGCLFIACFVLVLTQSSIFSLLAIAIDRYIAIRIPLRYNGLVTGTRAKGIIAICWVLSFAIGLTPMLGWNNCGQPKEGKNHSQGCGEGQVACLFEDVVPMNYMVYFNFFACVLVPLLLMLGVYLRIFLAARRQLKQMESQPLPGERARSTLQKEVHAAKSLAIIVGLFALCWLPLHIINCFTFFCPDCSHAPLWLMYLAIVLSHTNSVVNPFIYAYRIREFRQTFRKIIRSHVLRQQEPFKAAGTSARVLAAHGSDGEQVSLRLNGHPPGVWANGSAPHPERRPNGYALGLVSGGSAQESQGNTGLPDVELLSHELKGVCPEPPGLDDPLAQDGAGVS
Chain of Delta-type opioid receptor (P41143 whole entry): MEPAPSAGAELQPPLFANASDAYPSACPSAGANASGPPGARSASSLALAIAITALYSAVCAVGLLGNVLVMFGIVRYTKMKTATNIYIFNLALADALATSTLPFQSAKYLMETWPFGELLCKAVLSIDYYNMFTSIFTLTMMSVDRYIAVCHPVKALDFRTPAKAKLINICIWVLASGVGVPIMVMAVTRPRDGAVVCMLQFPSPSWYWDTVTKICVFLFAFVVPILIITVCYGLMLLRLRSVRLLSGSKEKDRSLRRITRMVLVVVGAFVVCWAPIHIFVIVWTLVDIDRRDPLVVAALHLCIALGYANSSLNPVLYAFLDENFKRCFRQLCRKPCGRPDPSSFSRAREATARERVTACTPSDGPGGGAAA
Chain of Melanocortin receptor 4 (P32245 whole entry): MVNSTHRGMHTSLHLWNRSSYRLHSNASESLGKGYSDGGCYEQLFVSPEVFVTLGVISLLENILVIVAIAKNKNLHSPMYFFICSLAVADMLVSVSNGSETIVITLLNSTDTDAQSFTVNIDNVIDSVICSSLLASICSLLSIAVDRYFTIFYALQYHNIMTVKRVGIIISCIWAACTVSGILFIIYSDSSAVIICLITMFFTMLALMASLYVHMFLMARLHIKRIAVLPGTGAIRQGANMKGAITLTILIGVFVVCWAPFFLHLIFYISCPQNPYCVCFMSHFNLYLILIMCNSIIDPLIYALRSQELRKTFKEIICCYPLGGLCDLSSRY
Chain of 5-hydroxytryptamine receptor 2B (P41595 whole entry): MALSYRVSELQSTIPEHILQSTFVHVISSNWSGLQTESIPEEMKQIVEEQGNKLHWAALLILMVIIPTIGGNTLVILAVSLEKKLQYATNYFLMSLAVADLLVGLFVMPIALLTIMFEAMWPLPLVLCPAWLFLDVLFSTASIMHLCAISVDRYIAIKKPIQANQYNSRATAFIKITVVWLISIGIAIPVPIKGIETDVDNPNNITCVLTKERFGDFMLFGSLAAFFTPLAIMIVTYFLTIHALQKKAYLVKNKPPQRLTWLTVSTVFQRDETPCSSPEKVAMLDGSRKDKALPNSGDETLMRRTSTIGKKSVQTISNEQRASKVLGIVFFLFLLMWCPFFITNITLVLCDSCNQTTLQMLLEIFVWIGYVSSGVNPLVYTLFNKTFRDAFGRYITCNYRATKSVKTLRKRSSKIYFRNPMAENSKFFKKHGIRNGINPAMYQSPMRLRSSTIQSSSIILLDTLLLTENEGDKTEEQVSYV

Compound | IC50 (B2 bradykinin receptor) | IC50 (Melanocortin receptor 4) | IC50 (Adenosine receptor A2a) | IC50 [1] | IC50 [2] | IC50 (Adenosine receptor A1) | also measured
CC(=N)S [THIOACETAMIDE] | Not Active | Not Active | Not Active | Not Active | Not Active | Not Active | –
O=C1C[C@@H]2OCC=C3CN4CC[C@]56c7ccccc7N1[C@H]5[C@H]2[C@H]3C[C@H]46 [STRYCHNINE] | Not Active | Not Active | Not Active | Not Active | Not Active | Not Active | –
Nc1ccc(S(=O)(=O)NC(=O)c2ccccc2)cc1 [SULFABENZAMIDE] | Not Active | Not Active | Not Active | Not Active | Not Active | Not Active | –
CC(=O)OCC(COC(C)=O)OC(C)=O [TRIACETIN] | Not Active | Not Active | Not Active | Not Active | Not Active | Not Active | –
CCCCC(=O)N(Cc1ccc(-c2ccccc2-c2nnn[nH]2)cc1)[C@H](C(=O)O)C(C)C | Not Active | Not Active | Not Active | Not Active | Not Active | Not Active | –
OCCOCCN1CCN(C2=Nc3ccccc3Sc3ccccc32)CC1 [QUETIAPINE] | Not Active | Not Active | Not Active | Not Active | – | Not Active | –
CC1CCC(NC(=O)N(CCCl)N=O)CC1 (stereo not drawn) [SEMUSTINE] | Not Active | Not Active | Not Active | Not Active | Not Active | Not Active | –
Oc1ccc2c3c1O[C@H]1[C@@H](O)CC[C@@]4(O)[C@@H](C2)N(CC2CCC2)CC[C@]314 [NALBUPHINE] | Not Active | Not Active | Not Active | – | Not Active | Not Active | –
Clc1ccc(COC(Cn2ccnc2)c2ccc(Cl)cc2Cl)c(Cl)c1 (stereo not drawn) [MICONAZOLE] | Not Active | – | – | – | – | – | pIC50 ([1]; read-out: IC50): 5.47; pKi ([1]; read-out: Ki): 5.92; pIC50 [2]: 5.26; pKi [2]: 5.45
O=C(O)CCCCC1CCSS1 (stereo not drawn) [LIPOIC ACID, ALPHA] | Not Active | Not Active | Not Active | Not Active | Not Active | Not Active | –
CCCCCCCCNC(C)C(O)c1ccc(SC(C)C)cc1 (stereo not drawn) [SULOCTIDIL] | Not Active | Not Active | Not Active | Not Active | – | Not Active | pIC50 [2]: 6.03; pKi [2]: 6.22
COC(=O)[C@H]1[C@H]2C[C@@H]3c4[nH]c5cc(OC)ccc5c4CCN3C[C@H]2C[C@@H](OC(=O)c2cc(OC)c(OC)c(OC)c2)[C@@H]1OC [RESERPINE] | Not Active | Not Active | Not Active | Not Active | Not Active | Not Active | –
O=c1[nH]c(=O)n(C2CCCO2)cc1F (stereo not drawn) [TEGAFUR] | Not Active | Not Active | Not Active | Not Active | Not Active | Not Active | –
CC(C)NC[C@H](O)COc1cccc2ccccc12 [LEVOPROPRANOLOL] | Not Active | Not Active | Not Active | Not Active | – | Not Active | –
CN1[C@@H]2CC[C@H]1C[C@@H](OC(c1ccccc1)c1ccccc1)C2 [BENZTROPINE] | Not Active | Not Active | Not Active | Not Active | – | Not Active | pIC50 [2]: 6.70; pKi [2]: 6.90
Cc1ccc(C(=O)c2ccc(CC(=O)O)n2C)cc1 [TOLMETIN] | Not Active | Not Active | Not Active | Not Active | Not Active | Not Active | –
C[S+]([O-])c1ccc(-c2nc(-c3ccncc3)c(-c3ccc(F)cc3)[nH]2)cc1 (stereo not drawn) [SB-203580] | Not Active | Not Active | – | Not Active | Not Active | – | pIC50 (Adenosine receptor A2a; read-out: IC50): 5.22; pKi (Adenosine receptor A2a; read-out: Ki): 5.47; pIC50 (Adenosine receptor A1; read-out: IC50): 5.53; pKi (Adenosine receptor A1; read-out: Ki): 5.76
CN1CCN(C2=Nc3cc(Cl)ccc3Nc3ccccc32)CC1 [CLOZAPINE] | Not Active | Not Active | Not Active | Not Active | – | Not Active | –
C[C@]12C=CC(=O)C=C1CC[C@@H]1[C@@H]2C(=O)C[C@@]2(C)[C@H]1CC[C@]2(O)C(=O)CO [PREDNISONE] | Not Active | Not Active | Not Active | Not Active | Not Active | Not Active | –
CC(C)NC[C@@H](O)COc1cccc2ccccc12 [DEXPROPRANOLOL] | Not Active | Not Active | Not Active | Not Active | – | Not Active | –
CN1CCN(CCCN2c3ccccc3Sc3ccc(C(F)(F)F)cc32)CC1 [TRIFLUOPERAZINE] | Not Active | Not Active | Not Active | Not Active | Not Active | Not Active | –
O=C(O)COc1ccc(C(=O)c2cccs2)c(Cl)c1Cl | Not Active | Not Active | Not Active | Not Active | Not Active | Not Active | –
C[N+](C)(C)CCOC(=O)CCC(=O)OCC[N+](C)(C)C.[Cl-].[Cl-] [SUCCINYLCHOLINE CHLORIDE] | Not Active | Not Active | Not Active | Not Active | Not Active | Not Active | –
TRANSPLATIN | Not Active | Not Active | Not Active | Not Active | Not Active | Not Active | Ki (B2 bradykinin receptor): Not Active; Ki (Melanocortin receptor 4): Not Active; Ki (Adenosine receptor A2a): Not Active; Ki [1]: Not Active; Ki [2]: Not Active; Ki (Adenosine receptor A1): Not Active
C[C@@](Cc1ccc(O)c(O)c1)(NN)C(=O)O.O [CARBIDOPA] | Not Active | Not Active | Not Active | Not Active | Not Active | Not Active | –
ZIRCONIUM(IV) CHLORIDE | Not Active | Not Active | Not Active | Not Active | Not Active | Not Active | Ki (B2 bradykinin receptor): Not Active; Ki (Melanocortin receptor 4): Not Active; Ki (Adenosine receptor A2a): Not Active; Ki [1]: Not Active; Ki [2]: Not Active; Ki (Adenosine receptor A1): Not Active
CN(C)C(=O)C(CCN1CCC(O)(c2ccc(Cl)cc2)CC1)(c1ccccc1)c1ccccc1 [LOPERAMIDE] | Not Active | Not Active | Not Active | – | – | Not Active | pIC50 [2]: 5.39; pKi [2]: 5.58
O=C(O)c1ccccc1O [SALICYLIC ACID] | Not Active | Not Active | Not Active | Not Active | Not Active | Not Active | –
